Test results from patent US20210137958A1, “PHARMACEUTICAL COMPOSITIONS OF DECITABINE” (SHILPA MEDICARE LIMITED, priority 2018, published 2021).

Assays:
[1] = reconstituted and diluted Dacogen solution; cited from earlier work
[2] = assay type: physicochemical
Description: a) Impurity 1 is formed in acidic and basic conditions. Impurity 1 is chemically 5-Azacytosine or 4-amino-1, 3, 5-triazin-2(1H)-one and represented by following structure.
b) Impurity 2 is an oxidation impurity formed by peroxide stress and is chemically (4-amino-1-(tetrahydro-4-hydroxy-5-(Hydroxymethyl)furan-2-yl)-1,3,5-triazin-2(1H)-one or alpha isomer and represented by following structure
c) Impurity 3 is an oxidation impurity formed by peroxide stress. Impurity 3 is chemically represented as (2-Deoxy-ribufuranosyl-3-guanylurea) or deformyl impurity and represented by following structure
d) NFDU impurity is a transition impurity and increases on oxidation by peroxide stress chemically represented as N-(formylamidino) N′-β-D-2′-deoxyribofuranosylurea and structurally represented as […]

Nc1ncn([C@H]2C[C@H](O)[C@@H](CO)O2)c(=O)n1 [decitabine, 4-amino-1-(2-deoxy-β-D-erythro-pentofuranosyl)-1,3,5-triazin-2(1H)-one]
Stability in aqueous media [1]: highly unstable | Impurities obtained on forced degradation [2]: four known impurities namely Impurity-1, Impurity-2, Impurity-3 and NFDU are obtained
